Measured values reported in US9586961B2, “Homopiperazine derivatives as protein tyrosine kinase inhibitors and pharmaceutical use thereof” (LEO PHARMA A/S, priority 2010, dated 2017).
pEC50: −log10 of the molar value.

What was measured:
Type in all cases: biochemical
JAK3 = target: T1, JAK3 (Homo sapiens, UniProt P52333); assay: JAK3 kinase assay (HTRF, inhibition of phosphorylation of a synthetic peptide); conditions: catalytic domain, His-tag; 2 μM ATP (Km); read-out: JAK3 kinase inhibitory activity (EC50)
T1 construct: All four purified enzymes contain only the catalytic domain; His (N); purchased Carna Biosciences, Inc; host or cells: baculovirus expression system
Experimental: (§1) JAK1, JAK2, JAK3 and TYK2 Kinase Assays:
(§2) Human baculovirus-expressed JAK1, 2, 3 and TYK2 were purchased from Carna Biosciences, Inc. All four purified enzymes contain only the catalytic domain. JAK1 (aa 850-1154) and TYK2 (aa 871-1187) are expressed with an N-terminally fused GST-tag, and JAK2 and JAK3 with an N-terminally fused His-tag. Inhibition of phosphorylation of a synthetic peptide was measured in an HTRF-based assay using the TK substrate-Biotin from the CisbioHTRFKinEASE TK kit. First, 2 μl of TK solution (TK substrate-biotin in kinase buffer [1× enzymatic buffer from HTRFKinEASE TK kit, 1 mM DTT]) is added to a plate containing 1 μl prediluted compound (final assay concentration DMSO: 0.75%). Then, 5 μl kinase-ATP mix (prepared in kinase buffer) is added to the wells and the plates are incubated at RT for 20-30 min. For all four kinases a concentration of ATP that corresponded to the Km for ATP was used. The final concentrations of buffers, substrate, kinase and ATP were: JAK1: 50 mMHepes buffer pH 7.0, 0.01% BSA, 10 mM MgCl2, 1 mM DTT, 7 μM ATP, 50 nMSEB, 1 μM TK Substrate-Biotin and 5 ng JAK1; JAK2: 50 mM Hepes buffer pH 7.0, 0.01% BSA, 5 mM MgCl2, 1 mM DTT, 4 μM ATP, 1 μM TK Substrate-Biotin and 0.1 ng JAK2; JAK3: 50 mMHepes buffer pH 7.0, 0.01% BSA, 5 mM MgCl2, 1 mM DTT, 2 μM ATP, 1 μM TK Substrate-Biotin and 0.3 ng JAK3; TYK2: 50 mMHepes buffer pH 7.0, 0.01% BSA, 5 mM MgCl2, 1 mM DTT, 13 μM ATP, 50 nMSEB, 1 μM TK Substrate-Biotin and 0.8 ng TYK2. Thereafter, the kinase reaction is stopped by adding 4 μl detection mix (final concentrations: 50 mM Hepes buffer pH 7.0, 0.01% BSA, 0.8 M KF, 20 mM EDTA, 42 nM Streptavidin-XL665 and 1:400 STKAbCryptate) and the plates are incubated overnight in the dark. The HTRF signal is read using an Envision plate reader.

JAK2 = target: T2, JAK2 (Homo sapiens, UniProt O60674); assay: JAK2 kinase assay (HTRF, inhibition of phosphorylation of a synthetic peptide); conditions: catalytic domain, His-tag; 4 μM ATP (Km); read-out: JAK2 kinase inhibitory activity (EC50)
T2 construct: All four purified enzymes contain only the catalytic domain; His (N); purchased Carna Biosciences, Inc; host or cells: baculovirus expression system
Experimental: as §1, §2

JAK1 = target: T3, JAK1 (Homo sapiens, UniProt P23458); assay: JAK1 kinase assay (HTRF, inhibition of phosphorylation of a synthetic peptide); conditions: catalytic domain aa 850-1154, GST-tag; 7 μM ATP (Km); read-out: JAK1 kinase inhibitory activity (EC50)
T3 construct: JAK1 (aa 850-1154) and TYK2 (aa 871-1187) are expressed with an N-terminally fused GST-tag; GST (N); purchased Carna Biosciences, Inc; host or cells: baculovirus expression system
Experimental: as §1, §2

T3 sequence (P23458 850-1154): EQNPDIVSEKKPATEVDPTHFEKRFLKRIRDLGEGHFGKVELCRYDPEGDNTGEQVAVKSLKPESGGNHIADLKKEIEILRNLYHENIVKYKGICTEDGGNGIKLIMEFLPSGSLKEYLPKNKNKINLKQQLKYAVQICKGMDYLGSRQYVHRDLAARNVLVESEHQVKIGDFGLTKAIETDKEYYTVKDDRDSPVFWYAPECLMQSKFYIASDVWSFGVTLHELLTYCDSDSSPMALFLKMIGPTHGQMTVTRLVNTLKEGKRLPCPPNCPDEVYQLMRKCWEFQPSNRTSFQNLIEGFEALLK
T2 sequence (O60674 849-1124 limits assumed): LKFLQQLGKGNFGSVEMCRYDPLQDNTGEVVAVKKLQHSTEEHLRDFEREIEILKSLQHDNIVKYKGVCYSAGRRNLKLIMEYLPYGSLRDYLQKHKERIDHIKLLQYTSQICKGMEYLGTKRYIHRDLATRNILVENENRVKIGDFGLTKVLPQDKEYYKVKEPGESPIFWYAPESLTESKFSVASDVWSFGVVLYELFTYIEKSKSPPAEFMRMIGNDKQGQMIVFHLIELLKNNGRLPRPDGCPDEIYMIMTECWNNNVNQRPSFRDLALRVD
T1 sequence (P52333 822-1111 limits assumed): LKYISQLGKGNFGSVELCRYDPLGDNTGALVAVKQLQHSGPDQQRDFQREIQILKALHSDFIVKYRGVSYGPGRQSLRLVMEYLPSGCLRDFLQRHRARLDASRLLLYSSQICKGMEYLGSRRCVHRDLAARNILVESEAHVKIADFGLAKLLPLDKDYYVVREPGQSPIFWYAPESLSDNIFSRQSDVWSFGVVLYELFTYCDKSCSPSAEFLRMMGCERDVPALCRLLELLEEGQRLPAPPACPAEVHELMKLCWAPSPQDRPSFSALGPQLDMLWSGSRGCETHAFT

| Structure (SMILES) | pEC50 (JAK3) | pEC50 (JAK2) | pEC50 (JAK1) |
| --- | --- | --- | --- |
| Cc1ncccc1C(=O)N1CCN(c2ncnc3[nH]ccc23)CC2(CC2)C1 [Example 135, (2-methyl-3-pyridyl)-[5-(7H-pyrrolo[2,3-d]pyrimidin-4-yl)-5,8-diazaspiro[2.6]nonan-8-yl]methanone] | < 6.00 | < 6.00 | < 6.00 |
| Cc1ncccc1C(=O)N1CCCN(c2ncnc3[nH]ccc23)CC12CC2 [Example 136, (2-methyl-3-pyridyl)-[5-(7H-pyrrolo[2,3-d]pyrimidin-4-yl)-5,9-diazaspiro[2.6]nonan-9-yl]methanone] | < 6.00 | 6.00 to 7.00 | < 6.00 |
| Cc1cnccc1C(=O)N1CCN(c2ncnc3[nH]ccc23)CC2(CC2)C1 [Example 137, (3-methyl-4-pyridyl)-[5-(7H-pyrrolo[2,3-d]pyrimidin-4-yl)-5,8-diazaspiro[2.6]nonan-8-yl]methanone] | < 6.00 | 6.00 to 7.00 | < 6.00 |
| Cc1cnccc1C(=O)N1CCCN(c2ncnc3[nH]ccc23)CC12CC2 [Example 138, (3-methyl-4-pyridyl)-[5-(7H-pyrrolo[2,3-d]pyrimidin-4-yl)-5,9-diazaspiro[2.6]nonan-9-yl]methanone] | < 6.00 | 6.00 to 7.00 | < 6.00 |
| O=C(c1ccnnc1)N1CCN(c2ncnc3[nH]ccc23)CC2(CC2)C1 [Example 139, pyridazin-4-yl-[5-(7H-pyrrolo[2,3-d]pyrimidin-4-yl)-5,8-diazaspiro[2.6]nonan-8-yl]methanone] | < 6.00 | 6.00 to 7.00 | 6.00 to 7.00 |
| Cc1nc(C)c(CC(=O)N2CCCN(c3ncnc4[nH]ccc34)CC23CC3)s1 [Example 140, 2-(2,4-dimethylthiazol-5-yl)-1-[5-(7H-pyrrolo[2,3-d]pyrimidin-4-yl)-5,9-diazaspiro[2.6]nonan-9-yl]ethanone] | < 6.00 | < 6.00 | < 6.00 |
| Cc1cc(C(=O)N2CCN(c3ncnc4[nH]ccc34)CC3(CC3)C2)n(C)n1 [Example 143, (2,5-dimethylpyrazol-3-yl)-[5-(7H-pyrrolo[2,3-d]pyrimidin-4-yl)-5,8-diazaspiro[2.6]nonan-8-yl]methanone] | < 6.00 | < 6.00 | < 6.00 |
| Cn1cncc1C(=O)N1CCN(c2ncnc3[nH]ccc23)CC2(CC2)C1 [Example 144, (3-methylimidazol-4-yl)-[5-(7H-pyrrolo[2,3-d]pyrimidin-4-yl)-5,8-diazaspiro[2.6]nonan-8-yl]methanone] | < 6.00 | 6.00 to 7.00 | 6.00 to 7.00 |
| Cn1cncc1C(=O)N1CCCN(c2ncnc3[nH]ccc23)CC12CC2 [Example 145, (3-methylimidazol-4-yl)-[5-(7H-pyrrolo[2,3-d]pyrimidin-4-yl)-5,9-diazaspiro[2.6]nonan-9-yl]methanone] | < 6.00 | 6.00 to 7.00 | 6.00 to 7.00 |
| Cc1nnsc1C(=O)N1CCN(c2ncnc3[nH]ccc23)CC2(CC2)C1 [Example 146, (4-methylthiadiazol-5-yl)-[5-(7H-pyrrolo[2,3-d]pyrimidin-4-yl)-5,8-diazaspiro[2.6]nonan-8-yl]methanone] | < 6.00 | 6.00 to 7.00 | 6.00 to 7.00 |
| Cc1nnsc1C(=O)N1CCCN(c2ncnc3[nH]ccc23)CC12CC2 [Example 147, (4-methylthiadiazol-5-yl)-[5-(7H-pyrrolo[2,3-d]pyrimidin-4-yl)-5,9-diazaspiro[2.6]nonan-9-yl]methanone] | < 6.00 | 6.00 to 7.00 | 6.00 to 7.00 |
| Cc1cc(C(=O)N2CCN(c3ncnc4[nH]ccc34)CC3(CC3)C2)[nH]n1 [Example 148, (5-methyl-1H-pyrazol-3-yl)-[5-(7H-pyrrolo[2,3-d]pyrimidin-4-yl)-5,8-diazaspiro[2.6]nonan-8-yl]methanone] | < 6.00 | 6.00 to 7.00 | 6.00 to 7.00 |
| Cc1cc(C(=O)N2CCCN(c3ncnc4[nH]ccc34)CC23CC3)n[nH]1 [Example 149, (5-methyl-1H-pyrazol-3-yl)-[5-(7H-pyrrolo[2,3-d]pyrimidin-4-yl)-5,9-diazaspiro[2.6]nonan-9-yl]methanone] | < 6.00 | 6.00 to 7.00 | 6.00 to 7.00 |
| Cc1ccncc1C(=O)N1CCN(c2ncnc3[nH]ccc23)CC2(CC2)C1 [Example 150, (4-methyl-3-pyridyl)-[5-(7H-pyrrolo[2,3-d]pyrimidin-4-yl)-5,8-diazaspiro[2.6]nonan-8-yl]methanone] | < 6.00 | < 6.00 | 6.00 to 7.00 |
| Cc1ccncc1C(=O)N1CCCN(c2ncnc3[nH]ccc23)CC12CC2 [Example 151, (4-methyl-3-pyridyl)-[5-(7H-pyrrolo[2,3-d]pyrimidin-4-yl)-5,9-diazaspiro[2.6]nonan-9-yl]methanone] | < 6.00 | 6.00 to 7.00 | 6.00 to 7.00 |

Now from value to compound:

| pEC50 (JAK3) | pEC50 (JAK2) | pEC50 (JAK1) | Structure (SMILES) |
| --- | --- | --- | --- |
| < 6.00 | 6.00 to 7.00 | 6.00 to 7.00 | O=C(c1cccnc1)N1CCCN(c2ncnc3[nH]ccc23)CC12CC2 [Example 128, 3-pyridyl-[5-(7H-pyrrolo[2,3-d]pyrimidin-4-yl)-5,9-diazaspiro[2.6]nonan-9-yl]methanone] |
| < 6.00 | 6.00 to 7.00 | 6.00 to 7.00 | O=C(c1ccncc1)N1CCN(c2ncnc3[nH]ccc23)CC2(CC2)C1 [Example 129, 4-pyridyl-[5-(7H-pyrrolo[2,3-d]pyrimidin-4-yl)-5,8-diazaspiro[2.6]nonan-8-yl]methanone] |
| < 6.00 | 6.00 to 7.00 | 6.00 to 7.00 | O=C(c1ccncc1)N1CCCN(c2ncnc3[nH]ccc23)CC12CC2 [Example 130, 4-pyridyl-[5-(7H-pyrrolo[2,3-d]pyrimidin-4-yl)-5,9-diazaspiro[2.6]nonan-9-yl]methanone] |
| 6.00 to 7.00 | 6.00 to 7.00 | 6.00 to 7.00 | O=C(c1ccc(O)nc1)N1CCN(c2ncnc3[nH]ccc23)CC2(CC2)C1 [Example 131, (6-hydroxy-3-pyridyl)-[5-(7H-pyrrolo[2,3-d]pyrimidin-4-yl)-5,8-diazaspiro[2.6]nonan-8-yl]methanone] |
| 6.00 to 7.00 | 6.00 to 7.00 | 6.00 to 7.00 | O=C(c1ccc(O)nc1)N1CCCN(c2ncnc3[nH]ccc23)CC12CC2 [Example 132, (6-hydroxy-3-pyridyl)-[5-(7H-pyrrolo[2,3-d]pyrimidin-4-yl)-5,9-diazaspiro[2.6]nonan-9-yl]methanone] |
| 6.00 to 7.00 | 6.00 to 7.00 | 6.00 to 7.00 | O=C(c1c[nH]cn1)N1CCN(c2ncnc3[nH]ccc23)CC2(CC2)C1 [Example 133, 1H-imidazol-4-yl-[5-(7H-pyrrolo[2,3-d]pyrimidin-4-yl)-5,8-diazaspiro[2.6]nonan-8-yl]methanone] |
| 6.00 to 7.00 | 6.00 to 7.00 | 6.00 to 7.00 | O=C(c1c[nH]cn1)N1CCCN(c2ncnc3[nH]ccc23)CC12CC2 [Example 134, 1H-imidazol-4-yl-[5-(7H-pyrrolo[2,3-d]pyrimidin-4-yl)-5,9-diazaspiro[2.6]nonan-9-yl]methanone] |
| 6.00 to 7.00 | 6.00 to 7.00 | 6.00 to 7.00 | O=C(c1ccon1)N1CCN(c2ncnc3[nH]ccc23)CC2(CC2)C1 [Example 152, isoxazol-3-yl-[5-(7H-pyrrolo[2,3-d]pyrimidin-4-yl)-5,8-diazaspiro[2.6]nonan-8-yl]methanone] |
| 6.00 to 7.00 | > 7.00 | 6.00 to 7.00 | Cc1nnc(C(=O)N2CCCN(c3ncnc4[nH]ccc34)CC23CC3)o1 [Example 154, (5-methyl-1,3,4-oxadiazol-2-yl)-[5-(7H-pyrrolo[2,3-d]pyrimidin-4-yl)-5,9-diazaspiro[2.6]nonan-9-yl]methanone] |
| 6.00 to 7.00 | 6.00 to 7.00 | 6.00 to 7.00 | O=C(c1cnco1)N1CCN(c2ncnc3[nH]ccc23)CC2(CC2)C1 [Example 155, oxazol-5-yl-[5-(7H-pyrrolo[2,3-d]pyrimidin-4-yl)-5,8-diazaspiro[2.6]nonan-8-yl]methanone] |
